Experimental data taken from US20250221998A1, “DISCOVERY OF COVALENT EGFR INHIBITOR THROUGH CYSTEINE 775” (Dana-Farber Cancer Institute, Inc., priority 2022, published 2025).

Key:
[1] = molecular target: EGFR mutant L858R Ba/F3 cells (Homo sapiens, UniProt P00533, L858R, cells depend on it); test: Ba/F3 cell proliferation (Cell Titer Glo), EGFR L858R; format: cell-based, murine; details: 72 hours exposure, read-out: L858R BaF3 (μM), inhibitory activity against EGFR mutants
In short: (§1)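 Ba/F3 cells stably expressing retrovirally transduced EGFR L858R, L858R/C797S or L858R/C775S, puromycin-selected. Compound exposure 72 hours in triplicate; viability by Cell Titer Glo ATP luminescence.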

[2] = molecular target: EGFR L858R/C797S Ba/F3 cells (Homo sapiens, UniProt P00533, C797S/L858R, cells depend on it); test: Ba/F3 cell proliferation (Cell Titer Glo), EGFR L858R/C797S; format: cell-based, murine; details: 72 hours exposure, read-out: L858R/C797S (μM), inhibitory activity against EGFR mutants
In short: as §1

EGFR L858R/C797S Ba/F3 cells, sequence (P00533 whole entry C797S/L858R): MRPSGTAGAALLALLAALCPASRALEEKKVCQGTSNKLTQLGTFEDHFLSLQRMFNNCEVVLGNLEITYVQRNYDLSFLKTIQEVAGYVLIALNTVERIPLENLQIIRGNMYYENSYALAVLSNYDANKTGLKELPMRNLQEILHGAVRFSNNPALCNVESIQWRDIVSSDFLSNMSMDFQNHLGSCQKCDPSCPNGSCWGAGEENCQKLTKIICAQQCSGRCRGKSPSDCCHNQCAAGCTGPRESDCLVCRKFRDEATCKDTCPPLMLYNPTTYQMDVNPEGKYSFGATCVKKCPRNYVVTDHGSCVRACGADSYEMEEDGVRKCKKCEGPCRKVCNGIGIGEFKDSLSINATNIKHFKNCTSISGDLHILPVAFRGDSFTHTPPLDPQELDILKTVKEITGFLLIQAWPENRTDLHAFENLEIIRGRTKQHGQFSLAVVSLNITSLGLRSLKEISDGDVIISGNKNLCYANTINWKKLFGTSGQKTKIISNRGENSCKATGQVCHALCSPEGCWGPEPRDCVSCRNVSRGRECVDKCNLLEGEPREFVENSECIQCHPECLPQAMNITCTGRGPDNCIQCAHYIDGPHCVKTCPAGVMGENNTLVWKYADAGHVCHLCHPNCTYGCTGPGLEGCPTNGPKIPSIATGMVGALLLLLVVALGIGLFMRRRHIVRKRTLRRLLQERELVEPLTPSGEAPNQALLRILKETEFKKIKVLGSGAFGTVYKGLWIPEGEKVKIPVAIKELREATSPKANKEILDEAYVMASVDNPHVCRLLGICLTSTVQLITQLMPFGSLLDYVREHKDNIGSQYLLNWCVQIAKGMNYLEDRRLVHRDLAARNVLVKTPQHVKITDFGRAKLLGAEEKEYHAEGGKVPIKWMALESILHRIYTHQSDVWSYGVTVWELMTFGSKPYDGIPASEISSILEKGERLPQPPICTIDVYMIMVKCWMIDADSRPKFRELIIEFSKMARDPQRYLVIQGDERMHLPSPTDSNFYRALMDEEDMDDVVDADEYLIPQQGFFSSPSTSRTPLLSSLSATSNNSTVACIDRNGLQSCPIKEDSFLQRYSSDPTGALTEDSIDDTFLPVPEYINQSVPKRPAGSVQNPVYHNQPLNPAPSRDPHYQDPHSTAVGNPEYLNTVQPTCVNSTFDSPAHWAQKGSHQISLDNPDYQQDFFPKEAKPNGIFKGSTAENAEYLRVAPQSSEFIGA
EGFR mutant L858R Ba/F3 cells, sequence (P00533 whole entry L858R): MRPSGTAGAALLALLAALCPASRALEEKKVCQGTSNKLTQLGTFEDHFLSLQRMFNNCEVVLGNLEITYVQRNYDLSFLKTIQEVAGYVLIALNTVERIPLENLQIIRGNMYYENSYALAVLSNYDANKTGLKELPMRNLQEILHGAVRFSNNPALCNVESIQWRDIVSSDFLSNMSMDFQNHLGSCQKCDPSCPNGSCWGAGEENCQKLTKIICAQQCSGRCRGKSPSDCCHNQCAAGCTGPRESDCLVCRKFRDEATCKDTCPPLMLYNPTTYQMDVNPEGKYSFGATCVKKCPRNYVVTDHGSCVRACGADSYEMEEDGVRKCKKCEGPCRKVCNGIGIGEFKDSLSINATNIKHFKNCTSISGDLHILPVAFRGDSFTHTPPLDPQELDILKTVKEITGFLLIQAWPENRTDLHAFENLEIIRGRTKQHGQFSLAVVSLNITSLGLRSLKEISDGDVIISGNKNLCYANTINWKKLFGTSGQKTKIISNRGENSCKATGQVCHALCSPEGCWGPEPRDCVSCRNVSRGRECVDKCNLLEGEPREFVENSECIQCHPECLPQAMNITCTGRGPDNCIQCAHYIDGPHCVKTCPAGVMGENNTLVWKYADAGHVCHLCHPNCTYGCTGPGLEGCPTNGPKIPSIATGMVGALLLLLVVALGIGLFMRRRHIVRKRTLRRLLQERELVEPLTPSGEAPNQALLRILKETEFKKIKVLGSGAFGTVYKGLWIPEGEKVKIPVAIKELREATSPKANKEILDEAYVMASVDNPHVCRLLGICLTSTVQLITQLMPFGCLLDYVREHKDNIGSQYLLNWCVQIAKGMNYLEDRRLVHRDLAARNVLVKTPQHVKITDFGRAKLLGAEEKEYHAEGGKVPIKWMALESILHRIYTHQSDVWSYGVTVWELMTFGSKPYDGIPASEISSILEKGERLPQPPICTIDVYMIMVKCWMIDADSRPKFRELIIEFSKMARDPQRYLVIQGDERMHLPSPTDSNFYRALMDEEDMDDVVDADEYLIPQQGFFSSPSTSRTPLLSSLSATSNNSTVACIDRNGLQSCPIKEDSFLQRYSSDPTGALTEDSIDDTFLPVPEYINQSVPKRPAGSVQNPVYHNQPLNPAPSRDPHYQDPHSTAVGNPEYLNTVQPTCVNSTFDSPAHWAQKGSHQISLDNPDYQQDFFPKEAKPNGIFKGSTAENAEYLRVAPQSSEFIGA

Compound	GI50 [1]	GI50 [2]
C=CC(=O)N1CC2CCN(c3cc4cnc(Nc5ccc(N6CCN(C)CC6)cc5)nc4n(C)c3=O)C[C@@H]2C1 (stereo partly drawn) [Compound 023, 8-methyl-2-[4-(4-methylpiperazin-1-yl)anilino]-6-(2-prop-2-enoyl-3,3a,4,6,7,7a-hexahydro-1H-pyrrolo[3,4-c]pyridin-5-yl)pyrido[2,3-d]pyrimidin-7-one]	≥ 2.5 µM	≥ 2.5 µM
C=CC(=O)N1CCN(c2cc3cnc(Nc4cc(OC)ncc4C)nc3n(C)c2=O)c2cccc(C)c21 [Compound 063]	0.25 to 0.5 µM	0.5 to 2.5 µM
C=CC(=O)N1CCN(c2cc3cnc(NC4CC4)nc3n(C)c2=O)c2cccc(C)c21 [Compound 083, 2-(cyclopropylamino)-8-methyl-6-(5-methyl-4-prop-2-enoyl-2,3-dihydroquinoxalin-1-yl)pyrido[2,3-d]pyrimidin-7-one]	0.5 to 2.5 µM	0.5 to 2.5 µM
C=CC(=O)N1CCN(c2cc3cnc(Nc4ccc(OCCN(C)C)cc4OC)nc3n(C)c2=O)c2cccc(C)c21 [Compound 068]	≤ 0.25 µM	≤ 0.25 µM
C=CC(=O)N1CCN(c2cc3cnc(Nc4ccc(N5CCN(C)CC5)c(F)c4)nc3n(C)c2=O)c2cccc(C)c21 [Compound 040]	≤ 0.25 µM	≤ 0.25 µM
C=C(F)C(=O)N1CCN(c2cc3cnc(Nc4ccc(N5CCN(C)CC5)cc4)nc3n(C)c2=O)c2cccc(C)c21 [Compound 028]	≤ 0.25 µM	0.25 to 0.5 µM
C=CC(=O)N1CCN(c2cc3cnc(Nc4ccccc4)nc3n([C@H]3C[C@H](O)C3)c2=O)c2cccc(C)c21 [Compound 070]	≤ 0.25 µM	≤ 0.25 µM
CCC(=O)N1CCN(c2cc3cnc(Nc4ccc(N5CCN(C)CC5)cc4)nc3n(C)c2=O)c2cccc(C)c21 [Compound 026]	0.5 to 2.5 µM	0.5 to 2.5 µM
C=CC(=O)N1CC(C)N(c2cc3cnc(Nc4ccc(N5CCN(C)CC5)cc4)nc3n(C)c2=O)C(C)C1 (stereo not drawn) [Compound 022, 6-(2,6-dimethyl-4-prop-2-enoyl-piperazin-1-yl)-8-methyl-2-[4-(4-methylpiperazin-1-yl)anilino]pyrido[2,3-d]pyrimidin-7-one]	≥ 2.5 µM	≥ 2.5 µM
C=CC(=O)N1CCN(c2cc3cnc(NC4CC4)nc3n(-c3ccc(N(C)CCN(C)C)cc3)c2=O)c2cccc(C)c21 [Compound 095, 2-(cyclopropylamino)-8-[4-[2-(dimethylamino)ethyl-methyl-amino]phenyl]-6-(5-methyl-4-prop-2-enoyl-2,3-dihydroquinoxalin-1-yl)pyrido[2,3-d]pyrimidin-7-one]	≤ 0.25 µM	≤ 0.25 µM
C=CC(=O)N1CCN(c2cc3cnc(Nc4ccc(CN5CCN(C)CC5)cc4)nc3n(C)c2=O)c2cccc(C)c21 [Compound 050]	≤ 0.25 µM	≤ 0.25 µM
C=CC(=O)N1CCN(c2cc3cnc(N)nc3n(-c3ccc(N(C)CCOC)cc3)c2=O)c2cccc(C)c21 [Compound 099, 2-amino-8-[4-[2-methoxyethyl(methyl)amino]phenyl]-6-(5-methyl-4-prop-2-enoyl-2,3-dihydroquinoxalin-1-yl)pyrido[2,3-d]pyrimidin-7-one]	≤ 0.25 µM	≤ 0.25 µM
C=CC(=O)N1CCN(c2cc3cnc(Nc4ccc(N5CCN(C)CC5)cc4)nc3n(C)c2=O)C2(CC2)C1 [Compound 012, 8-methyl-2-[4-(4-methylpiperazin-1-yl)anilino]-6-(7-prop-2-enoyl-4,7-diazaspiro[2.5]octan-4-yl)pyrido[2,3-d]pyrimidin-7-one]	≥ 2.5 µM	≥ 2.5 µM

Results, then the compound that gave them:

GI50 [1]	GI50 [2]	Compound
≤ 0.25 µM	≤ 0.25 µM	C=CC(=O)N1CCN(c2cc3cnc(Nc4ccc(OCCN(C)C)cc4)nc3n(C)c2=O)c2cc(O)ccc21 [Compound 078, 2-[4-[2-(dimethylamino)ethoxy]anilino]-6-(7-hydroxy-4-prop-2-enoyl-2,3-dihydroquinoxalin-1-yl)-8-methyl-pyrido[2,3-d]pyrimidin-7-one]
≤ 0.25 µM	≤ 0.25 µM	C=CC(=O)N1CCN(c2cc3cnc(NC4CC4)nc3n(-c3ccc(OCCN(C)C)cc3)c2=O)c2cccc(C)c21 [Compound 082, 2-(cyclopropylamino)-8-[4-[2-(dimethylamino)ethoxy]phenyl]-6-(5-methyl-4-prop-2-enoyl-2,3-dihydroquinoxalin-1-yl)pyrido[2,3-d]pyrimidin-7-one]
≤ 0.25 µM	≤ 0.25 µM	C=CC(=O)N1CCN(c2cc3cnc(N)nc3n(-c3ccc(N4CCN(C)CC4)cc3)c2=O)c2cccc(C)c21 [Compound 092, 2-amino-8-[4-(4-methylpiperazin-1-yl)phenyl]-6-(5-methyl-4-prop-2-enoyl-2,3-dihydroquinoxalin-1-yl)pyrido[2,3-d]pyrimidin-7-one]
≤ 0.25 µM	≤ 0.25 µM	C=CC(=O)N1CCN(c2c(F)c3cnc(Nc4ccc(N5CCN(C)CC5)cc4)nc3n(C)c2=O)c2cccc(C)c21 [Compound 054, 5-fluoro-8-methyl-2-[4-(4-methylpiperazin-1-yl)anilino]-6-(5-methyl-4-prop-2-enoyl-2,3-dihydroquinoxalin-1-yl)pyrido[2,3-d]pyrimidin-7-one]
≤ 0.25 µM	≤ 0.25 µM	C=CC(=O)N1CCN(c2cc3cnc(Nc4ccc(OCCN(C)C)cc4)nc3n(CC(C)(C)O)c2=O)c2cccc(C)c21 [Compound 058, 2-[4-[2-(dimethylamino)ethoxy]anilino]-8-(2-hydroxy-2-methyl-propyl)-6-(5-methyl-4-prop-2-enoyl-2,3-dihydroquinoxalin-1-yl)pyrido[2,3-d]pyrimidin-7-one]
≤ 0.25 µM	≤ 0.25 µM	C=CC(=O)N1CCN(c2cc3cnc(Nc4ccc(OCCN(C)C)cc4)nc3n(-c3cccnc3)c2=O)c2cccc(C)c21 [Compound 067]
≤ 0.25 µM	≤ 0.25 µM	C=CC(=O)N1CCN(c2cc3cnc(Nc4cccc(N5CCS(=O)(=O)CC5)c4)nc3n(C)c2=O)c2cccc(C)c21 [Compound 045]
≤ 0.25 µM	≤ 0.25 µM	C=CC(=O)N1CCN(c2cc3cnc(N)nc3n(-c3ccc(OCCN(C)C)cc3)c2=O)c2cccc(C)c21 [Compound 080, 2-amino-8-[4-[2-(dimethylamino)ethoxy]phenyl]-6-(5-methyl-4-prop-2-enoyl-2,3-dihydroquinoxalin-1-yl)pyrido[2,3-d]pyrimidin-7-one]
≤ 0.25 µM	≤ 0.25 µM	C=CC(=O)N1CCN(c2cc3cnc(Nc4ccc(OCCN(C)C)cc4)nc3n(CCO)c2=O)c2cccc(C)c21 [Compound 047, 2-[4-[2-(dimethylamino)ethoxy]anilino]-8-(2-hydroxyethyl)-6-(5-methyl-4-prop-2-enoyl-2,3-dihydroquinoxalin-1-yl)pyrido[2,3-d]pyrimidin-7-one]
≤ 0.25 µM	0.25 to 0.5 µM	C=CC(=O)N1CCN(c2cc3cnc(Nc4cnn(CCS(C)(=O)=O)c4)nc3n(C)c2=O)c2cccc(C)c21 [Compound 041]
≤ 0.25 µM	0.25 to 0.5 µM	C=C(F)C(=O)N1CCN(c2cc3cnc(Nc4cnn(CCO)c4)nc3n(C)c2=O)c2ccccc21 [Compound 013, 6-[4-(2-fluoroprop-2-enoyl)-2,3-dihydroquinoxalin-1-yl]-2-[[1-(2-hydroxyethyl)pyrazol-4-yl]amino]-8-methyl-pyrido[2,3-d]pyrimidin-7-one]
